How the values were obtained:
[1] = test system: HCT116 FOPFlash (FOP control vector, non-functional TCF elements); experiment: Cellular control reporter assay, HCT116 FOP control vector; assay type: cell-based; conditions: Homo sapiens, HCT-116; HCT116 stably transfected with FOP control vector; 36 hours incubation; luciferase expression; dilution series from 50 μM
Description: (§1) In a parallel approach, HCT116 cells were cotransfected with the FOP control vector and pcDNA3. The FOP vector is identical to the TOP construct, but it contains instead of functional TCF elements a randomized, non-functional sequence. For this transfection a stable transfected cell line was generated as well.
(§2) In preparation of the assay, the two cell lines were plated 24 hours before at 10000 cells per well of a 384 micro titre plate (MTP) in 30 μL growth medium. Selective inhibitory activity for small molecules on the mutated Wnt pathway was determined after parallel incubation of both (TOP and FOP) HCT116 reporter cell lines with a compound dilution series from 50 μM to 15 nM in steps of 3.16-fold dilutions in CAFTY buffer (130 mM NaCl, 5 mM KCl, 20 mM HEPES, 1 mM MgCl2, 5 mM NaHCO3, pH 7.4) containing 2 mM Ca^2+ and 0.01% BSA. The compounds were thereby serially prediluted in 100% DMSO and thereafter in addition 50 fold into the CAFTY compound dilution buffer (described above). From this dilution 10 μL were added to the cells in 30 μL growth medium and incubated for 36 hours at 37° C. and 5% CO2. Thereafter luciferase assay buffer (1:1 mixture of luciferase substrate buffer (20 mM Tricine, 2.67 mM MgSO4, 0.1 mM EDTA, 4 mM DTT, 270 μM Coenzyme A, 470 μM Luciferin, 530 μM ATP, ph adjusted to pH 7.8 with a sufficient volume of 5M NaOH) and Triton buffer (30 mL Triton X-100, 115 mL glycerol, 308 mg Dithiothreitol, 4.45 g Na2HPO4.2H2O, 3.03 g TRIS HCl, ad 1 l H20, pH 7.8) was added as equal volume to the compound solution on the cells to determine luciferase expression as a measure of Wnt signaling activity in a luminometer.

[2] = test system: constitutive active Wnt pathway (HCT116 TOPFlash); experiment: Cellular reporter assay, HCT116 Super TopFlash (constitutive active Wnt pathway); assay type: cell-based; conditions: Homo sapiens, HCT-116; HCT116 stably transfected with Super TopFlash vector; 36 hours incubation; luciferase expression
Description: In order to discover and characterize small molecules which inhibit the constitutive active colorectal cancer cell (CRC) Wnt pathway, a cellular reporter assay was employed. The corresponding assay cell was generated by transfection of the colorectal cancer cell line HCT116 (ATCC, #CCL-247) with the Super TopFlash vector (Morin, Science 275, 1997, 1787-1790; Molenaar et al., Cell 86 (3), 1996, 391-399). The HCT116 cell line is cultivated at 37° C. and 5% CO2 in DMEM/F-12 (Life Technologies, #11320-074), supplemented with 2 mM glutamine, 20 mM HEPES, 1.4 mM pyruvate, 0.15% Na-bicarbonate and 10% foetal bovine serum (GIBCO, #10270), this cancer cell line is pathophysiological relevant since it carries a deletion of position S45 in the β-catenin gene, leading to constitutive active Wnt signaling. Stable transfectants were generated by cotransfection with pcDNA3 and selection of stable transfected cells with 1 mg/ml G418.
as §1, §2

SMILES | IC50 [1] [µM] | IC50 [2] [µM]
O=C(CN1CCOCC1)Nc1cc(C(=O)Nc2cnc(-c3ccncc3)cn2)ccc1OC(F)(F)F [Example 51, 3-[(morpholin-4-ylacetyl)amino]-N-[5-(pyridin-4-yl)pyrazin-2-yl]-4-(trifluoromethoxy)benzamide] | ≥ 50 | 0.483
O=C(CN1CCOCC1)Nc1cc(C(=O)Nc2cnc(-c3cnccn3)cn2)ccc1OC1CC1 [Example 52, N-(2,2′-bipyrazin-5-yl)-4-(cyclopropyloxy)-3-[(morpholin-4-ylacetyl)amino]benzamide] | 44.7 | 0.372
Nc1ncc(-c2cnc(NC(=O)c3ccc(OC(F)(F)F)c(NC(=O)CN4CCOCC4)c3)cn2)cn1 [Example 53, N-[5-(2-aminopyrimidin-5-yl)pyrazin-2-yl]-3-[(morpholin-4-ylacetyl)amino]-4-(trifluoromethoxy)benzamide] | 9.5 | 0.83
CN1CCN(CC(=O)Nc2cc(C(=O)Nc3cnc(-c4cnccn4)cn3)ccc2OC(F)(F)F)CC1 [Example 54, N-(2,2′-bipyrazin-5-yl)-3-{[(4-methylpiperazin-1-yl)acetyl]amino}-4-(trifluoromethoxy)benzamide] | ≥ 50 | 1.35
Nc1cc(-c2cnc(NC(=O)c3ccc(OC(F)(F)F)c(NC(=O)CN4CCOCC4)c3)cn2)ccn1 [Example 55, N-[5-(2-aminopyridin-4-yl)pyrazin-2-yl]-3-[(morpholin-4-ylacetyl)amino]-4-(trifluoromethoxy)benzamide] | 26.2 | 17.2
CN1CCN(CC(=O)Nc2cc(C(=O)Nc3cnc(-c4ccnc(N)c4)cn3)ccc2OC(F)(F)F)CC1 [Example 56, N-[5-(2-aminopyridin-4-yl)pyrazin-2-yl]-3-{[(4-methylpiperazin-1-yl)acetyl]amino}-4-(trifluoromethoxy)benzamide] | ≥ 50 | 2
O=C(CN1CCOCC1)Nc1cc(C(=O)Nc2cnc(-c3cnccn3)cn2)ccc1OC(F)(F)F [Example 57, N-(2,2′-bipyrazin-5-yl)-3-[(morpholin-4-ylacetyl)amino]-4-(trifluoromethoxy)benzamide] | ≥ 50 | 2.4
Cc1cccc(F)c1-c1cnc(NC(=O)c2ccc(OC(F)(F)F)c(NC(=O)CN3CCOCC3)c2)cn1 [Example 58, N-[5-(2-fluoro-6-methylphenyl)pyrazin-2-yl]-3-[(morpholin-4-ylacetyl)amino]-4-(trifluoromethoxy)benzamide] | ≥ 50 | 2.9

Now from value to compound:

IC50 [1] [µM] | IC50 [2] [µM] | SMILES
≥ 50 | 3 | CN1CCN(CC(=O)Nc2cc(C(=O)Nc3cnc(-c4cccc(F)c4)cn3)ccc2OC(F)(F)F)CC1 [Example 59, N-[5-(3-fluorophenyl)pyrazin-2-yl]-3-{[(4-methylpiperazin-1-yl)acetyl]amino}-4-(trifluoromethoxy)benzamide]
≥ 50 | 4.1 | CN1CCN(CC(=O)Nc2cc(C(=O)Nc3cnc(-c4cnc(N)cn4)cn3)ccc2OC(F)(F)F)CC1 [Example 60, N-(5′-amino-2,2′-bipyrazin-5-yl)-3-{[(4-methylpiperazin-1-yl)acetyl]amino}-4-(trifluoromethoxy)benzamide]
≥ 50 | ≥ 50 | O=C(CN1CCOCC1)Nc1cc(C(=O)Nc2cnc(-c3ccccn3)cn2)ccc1OC(F)(F)F [Example 61, 3-[(morpholin-4-ylacetyl)amino]-N-[5-(pyridin-2-yl)pyrazin-2-yl]-4-(trifluoromethoxy)benzamide]
25.5 | 12.5 | N=S1(=O)CCN(CC(=O)Nc2cc(C(=O)Nc3ccc(-c4ccccc4)nn3)ccc2OC(F)(F)F)CC1 [Example 62]
≥ 50 | 16 | O=C(CN1CCOCC1)Nc1cc(C(=O)Nc2cnc(-c3cccc(F)c3)cn2)ccc1OC(F)(F)F [Example 63, N-[5-(3-fluorophenyl)pyrazin-2-yl]-3-[(morpholin-4-ylacetyl)amino]-4-(trifluoromethoxy)benzamide]
